PMC4993649 (ChemMedChem, 2016)
Where two headings read alike, the source gives them in different places.

Experiments:
HCT colon cancer cells = assay: Cell viability assay, HCT; settings: 96 h, read-out: Effects on cell growth IC50, HCT
[1] = target: T1, purified full-length human ERβ (Homo sapiens, UniProt Q92731); settings: for β/α ratio (of RBA values): ERβ RBA / ERα RBA
U87 glioma cells = assay: Cell viability assay, U87; settings: 96 h, read-out: Effects on cell growth IC50, U87
LoVo colon cancer cells = assay: Cell viability assay, LoVo; settings: 96 h, read-out: Effects on cell growth IC50, LoVo
MCF7 breast cancer cells = assay: Cell viability assay, MCF7; settings: Homo sapiens, MCF7, 96 h, read-out: Effects on cell growth IC50, MCF7
[2] = target: T1, purified full-length human ERβ; assay: biochemical
[3] = target: ERβ/C369-biotin-SaTb with SRC3 NRID-fluorescein (Homo sapiens, UniProt Q92731); assay: tr-FRET ligand titration into ERβ and SRC3; assay type: biochemical; settings: read-out: Ligand coactivator recruitment potency (Ligand titration) EC50; ligand titrated into 1 nM ERβ LBD, 0.25 nM SaTb, 100 nM SRC3-fluorescein; mean ± SD
Chain of ERβ/C369-biotin-SaTb with SRC3 NRID-fluorescein (Q9Y6Q9 627-829): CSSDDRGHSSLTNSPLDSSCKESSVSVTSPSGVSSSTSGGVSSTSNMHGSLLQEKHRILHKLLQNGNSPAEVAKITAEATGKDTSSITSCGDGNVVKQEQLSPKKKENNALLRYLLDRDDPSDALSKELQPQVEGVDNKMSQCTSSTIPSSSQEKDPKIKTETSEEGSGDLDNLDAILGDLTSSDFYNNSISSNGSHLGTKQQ
Chain of ERβ/C369-biotin-SaTb with SRC3 NRID-fluorescein (Q92731 256-503): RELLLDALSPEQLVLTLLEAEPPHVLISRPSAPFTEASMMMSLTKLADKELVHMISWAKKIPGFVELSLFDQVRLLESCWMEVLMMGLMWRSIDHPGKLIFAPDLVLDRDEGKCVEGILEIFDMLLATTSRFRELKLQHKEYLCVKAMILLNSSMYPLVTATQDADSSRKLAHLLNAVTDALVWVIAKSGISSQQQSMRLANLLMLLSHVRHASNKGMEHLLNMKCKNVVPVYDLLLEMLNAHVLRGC

[4] = tested on: SkBr3 breast cancer cells; assay: Cell viability assay, SkBr3; settings: Homo sapiens, SK-BR-3, 96 h, read-out: Effects on cell growth IC50, SkBr3
[5] = target: ERβ LBD/C369-biotin with SRC3 NRID-fluorescein (Homo sapiens, UniProt Q92731); assay: tr-FRET SRC3 titration into ERβ-ligand complex; settings: E2 = 100
Chain of ERβ LBD/C369-biotin with SRC3 NRID-fluorescein (Q9Y6Q9 627-829): as the sequence (Q9Y6Q9 627-829) above
Chain of ERβ LBD/C369-biotin with SRC3 NRID-fluorescein (Q92731 256-503): as the sequence (Q92731 256-503) above

[6] = tested on: MDA-MB-231 breast cancer cells; assay: Cell viability assay, MDA-MB-231; settings: Homo sapiens, MDA-MB-231, 96 h, read-out: Effects on cell growth IC50, MDA231

T1 sequence (Q92731 whole entry): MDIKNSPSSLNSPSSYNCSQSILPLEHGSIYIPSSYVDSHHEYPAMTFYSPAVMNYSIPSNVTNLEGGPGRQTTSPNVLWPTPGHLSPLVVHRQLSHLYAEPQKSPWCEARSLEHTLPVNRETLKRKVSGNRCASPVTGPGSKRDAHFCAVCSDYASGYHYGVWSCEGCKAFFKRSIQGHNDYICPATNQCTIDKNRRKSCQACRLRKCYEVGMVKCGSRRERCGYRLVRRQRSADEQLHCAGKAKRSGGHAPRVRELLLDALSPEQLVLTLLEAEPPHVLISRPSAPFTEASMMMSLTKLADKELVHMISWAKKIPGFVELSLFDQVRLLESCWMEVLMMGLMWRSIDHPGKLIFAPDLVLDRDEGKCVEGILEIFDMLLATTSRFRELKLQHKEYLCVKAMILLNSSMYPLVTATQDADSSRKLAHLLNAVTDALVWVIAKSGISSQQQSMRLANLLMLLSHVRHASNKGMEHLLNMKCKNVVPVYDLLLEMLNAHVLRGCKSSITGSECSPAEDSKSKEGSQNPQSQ

SMILES	β/α ratio (of RBA values) [1]	Ki [2]	EC50 [3]	Efficacy % (completeness of the curves relative to E2) [5]	also measured
O/N=C1\CCc2c(-c3ccc(O)cc3)ccc(O)c21 [1a, (E)-7-hydroxy-4-(4-hydroxyphenyl)-2,3-dihydro-1H-inden-1-one oxime]	16	0.0117 µM	0.0142 ± 0.003 µM	93%	IC50 (HCT colon cancer cells; Homo sapiens): 61.5 ± 8.8 µM; IC50 (U87 glioma cells; Homo sapiens, U-87 MG): 150.7 ± 1.2 µM; IC50 (LoVo colon cancer cells; Homo sapiens, LoVo): 19.8 ± 2.1 µM; IC50 (MCF7 breast cancer cells): 70.1 ± 12.4 µM; IC50 [4]: 140 ± 11.2 µM; IC50 [6]: 42.3 ± 1.1 µM
COc1ccc(-c2ccc(O)c3c2CC/C3=N\O)cc1 [1b, (E)-7-hydroxy-4-(4-methoxyphenyl)-2,3-dihydro-1H-inden-1-one oxime]	3.0				
O/N=C1\CCc2c(-c3ccc(O)c(F)c3)ccc(O)c21 [1c, (E)-4-(3-fluoro-4-hydroxyphenyl)-7-hydroxy-2,3-dihydro-1H-inden-1-one oxime]	33	0.0106 µM	0.0195 ± 0.0026 µM	88%	IC50 (HCT colon cancer cells; Homo sapiens): 10.8 ± 1.2 µM; IC50 (U87 glioma cells; Homo sapiens, U-87 MG): 32.3 ± 1.1 µM; IC50 (LoVo colon cancer cells; Homo sapiens, LoVo): 14.5 ± 3.1 µM; IC50 (MCF7 breast cancer cells): 23.2 ± 1.4 µM; IC50 [4]: 130 ± 9.7 µM; IC50 [6]: 8.1 ± 1.3 µM
COc1ccc(-c2ccc(O)c3c2CC/C3=N\O)cc1F [1d, (E)-4-(3-fluoro-4-methoxyphenyl)-7-hydroxy-2,3-dihydro-1H-inden-1-one oxime]	0.8				
O/N=C1\CCc2c(-c3ccccc3)ccc(O)c21 [1i, (E)-7-hydroxy-4-phenyl-2,3-dihydro-1H-inden-1-one oxime]	89	0.282 µM	0.393 ± 0.124 µM	72%	decrease of ERβ affinity compared to 1a ([1]; from RBA values): 24 fold
O=C1C[C@@H](c2ccc(O)cc2)Oc2cc(O)ccc21 [Liquiritigenin, reference compound]					IC50 (HCT colon cancer cells; human colon cancer, mean ± SD): 75.3 ± 7.1 µM; IC50 (U87 glioma cells; human glioma, mean ± SD): 115 ± 11.7 µM; IC50 (LoVo colon cancer cells; human colon cancer, mean ± SD): 101 ± 10.2 µM

Continued, in another order:

β/α ratio (of RBA values) [1]	SMILES	Ki [2]	EC50 [3]	Efficacy % (completeness of the curves relative to E2) [5]	also measured
6.3	Cc1cc(-c2ccc(O)c3c2CC/C3=N\O)ccc1O [1e, (E)-7-hydroxy-4-(4-hydroxy-3-methylphenyl)-2,3-dihydro-1H-inden-1-one oxime]				
1.0	COc1ccc(-c2ccc(O)c3c2CC/C3=N\O)cc1C [1f, (E)-7-hydroxy-4-(4-methoxy-3-methylphenyl)-2,3-dihydro-1H-inden-1-one oxime]				
8.0	O/N=C1\CCc2c(-c3ccc(O)c(Cl)c3)ccc(O)c21 [1g, (E)-4-(3-chloro-4-hydroxyphenyl)-7-hydroxy-2,3-dihydro-1H-inden-1-one oxime]				
0.50	COc1ccc(-c2ccc(O)c3c2CC/C3=N\O)cc1Cl [1h, (E)-4-(3-chloro-4-methoxyphenyl)-7-hydroxy-2,3-dihydro-1H-inden-1-one oxime]				
